Experimental data from paper PMC9668914, “Understanding VPAC receptor family peptide binding and selectivity” (Nature Communications, 2022).
Read-outs that look alike come from different tables or passages of the source.

Tests used:
Nluc-PAC1R [1] = target: Nluc-PAC1R (UniProt P41586); assay: FRET or BRET; NanoBRET whole cell competition binding; COS-7 cells with Nluc-PAC1R, 30 nM AF568-PACAP27 and increasing competing peptide added together, 4 °C, BRET buffer (0.1% ovalbumin, 10 mM HEPES, 1x HBSS, pH 7.45); one site fit of log IC50
Nluc-PAC1R [2] = target: T1, Nluc-PAC1R (Homo sapiens, UniProt P41586); assay: NanoBRET competition binding, AF568-PACAP27 probe (Fig. 5c); conditions: COS-7, 30 nM AF568-PACAP27, 4 °C, read-out: pIC50, PAC1R competition binding (converted)
T1 construct: A construct containing N-terminal NLuc immediately after the native signal peptide of PAC1R was also generated in pcDNA3.1; expressed in transfected cells; host or cells: COS-7 (transient, PEI; whole cells at 4 °C)
T1 sequence (P41586 21-468): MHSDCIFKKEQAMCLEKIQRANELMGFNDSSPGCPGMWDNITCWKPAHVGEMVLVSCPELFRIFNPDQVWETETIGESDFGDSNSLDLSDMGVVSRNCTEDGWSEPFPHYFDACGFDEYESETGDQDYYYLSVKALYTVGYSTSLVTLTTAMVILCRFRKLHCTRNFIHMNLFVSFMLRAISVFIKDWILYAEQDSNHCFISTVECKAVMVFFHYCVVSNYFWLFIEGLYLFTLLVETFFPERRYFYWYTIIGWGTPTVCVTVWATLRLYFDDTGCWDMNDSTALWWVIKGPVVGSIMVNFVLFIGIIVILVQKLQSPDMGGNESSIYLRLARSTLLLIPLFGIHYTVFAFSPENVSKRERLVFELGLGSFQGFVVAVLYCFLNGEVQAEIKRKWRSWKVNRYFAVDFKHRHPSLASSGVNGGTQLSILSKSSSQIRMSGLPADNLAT
From the text: (§1) An HA signal peptide was inserted in place of the native signal peptide of the receptors and a FLAG epitope was incorporated into the receptor N-terminus immediately after the signal peptide. A His tag was fused to C-terminus of the receptor. 3C protease cleavage sites were inserted between both the FLAG and His tags and the receptor. […] The following PAC1R and VPAC1R mutants were also generated using Quikchange mutagenesis: PAC1R C25A, PAC1R C219A, PAC1R C25A/C219A, VPAC1R C37A and VPAC1R C208A. For all PAC1R constructs, we used the PAC1R null (PAC1n) splice variant. A construct containing N-terminal NLuc immediately after the native signal peptide of PAC1R was also generated in pcDNA3.1.
Therefore, the lysine residue at position 21 was replaced with a cysteine residue (^21C) for the facile conjugation of fluorophore via thiol-maleimide click reaction. The resulting target peptide ^21C-PACAP27 (Mutant fragment) with amidated C-terminus was synthesized by standard Fmoc-solid phase peptide synthesis method[43] and purified by Reversed-phase high-performance liquid chromatography (RP-HPLC). […] of Alexa Fluor™ 568F was purchased from ThermoFisher Scientific (Catalog number: A20003). The thiol-maleimide conjugation reaction was carried out by our published protocol. […] The molecular weight of the probe was confirmed by Matrix-Assisted Laser Desorption/Ionization Time-of-Flight Mass Spectrometry (MALDI-TOF MS).
COS-7 cells were plated in 10 cm dishes at approximately 1 million cells/dish. Cells were transfected 24 h later, using 3 μg of Nluc-PAC1R DNA using the method described above and then seeded at a density of 15,000 cells per well in white-bottom 96-well culturplates 24 h prior to assay. On the day of the assay, cell culture media was replaced with BRET buffer (0.1% ovalbumin, 10 mM HEPES, 1x HBSS, pH 7.45) and incubated at 4 °C for two hours. […] After 1.5 h, furimazine (10 μM final concentration) was added to each well and the plate incubated for a further 30 min in the dark at 4 °C before reading. Filtered light emissions were measured at 460±40 nm (donor channel) and at 610-LP nm (long pass) (acceptor channel) using a PHERAstar plate reader (BMG Labtech). The raw NanoBRET ratio was calculated by dividing the luminescence from the acceptor channel by the donor channel. Data were expressed as % AF568-PACAP27 BRET signal in the absence of competing ligand.
(§2) The pharmacological data in figures and tables are reported as mean + standard error of the mean (SEM) with the number of biological replicates indicated in the figure and table legends where “n” represents the number of biological replicates performed. Concentration-response data were analyzed in GraphPad Prism version 9.4.0 using a three-parameter logistic curve to derive pEC50 values for the cyclic AMP accumulation. Competition binding data were analyzed in GraphPad Prism using the one site—Fit log IC50 model to derive pIC50 values. For the cysteine mutagenesis data, comparisons of multiple different groups were performed using one-way analysis of variance (ANOVA), followed by Dunnett’s post-hoc test with the control group being the WT receptor, with significance accepted at p < 0.05. For the chimeric peptide data, comparisons of multiple different groups were performed using one-way ANOVA, followed by Tukey’s post-hoc test, with significance accepted at p < 0.05.

PAC1R = target: T2, PAC1R (Homo sapiens, UniProt P41586); assay: cAMP accumulation, chimeric peptides (Fig. 5b); assay type: cell-based; conditions: COS-7, three-parameter logistic, read-out: pEC50, PAC1R cAMP (converted)
T2 construct: An HA signal peptide was inserted in place of the native signal peptide of the receptors; HA signal peptide (replaces the native signal peptide) (N); 3C protease cleavage sites (between FLAG and receptor, and between receptor and His) (internal); expressed in transfected cells; host or cells: COS-7 (transient, PEI)
T2 sequence (P41586 21-468): T1 sequence (P41586 21-468)
From the text: as §1
COS-7 cells were used for the chimeric peptide and cysteine mutagenesis pharmacological assays due to their lack of endogenous expression of PAC1R and receptor activity-modifying proteins, reported to potentially heterodimerize with PAC1R and VPAC1R[42]. Cells were cultured in Dulbecco’s Modified Eagle’s Medium (DMEM) (Invitrogen) supplemented with 5% v/v heat-inactivated FBS at 37 °C and […] /5% CO2 in a humidified incubator. COS-7 cells were plated in 10 cm dishes at approximately 1 million cells/dish. Cells were transfected 24 h later, with 5 µg of either WT or mutant PAC1R or VPAC1R receptor DNA. DNA and PEI (in a 1:6 ratio) were each diluted in 150 mM NaCl, and then combined and incubated for 10 min, before the mixture was added to the 10 cm dish. The next day, cells were harvested from the 10 cm dishes using Trypsin-Versene (PBS + 0.5 mM EDTA, pH 7.4), and were seeded at a density of 15,000 cells/well into clear 96-well culture plates and incubated overnight at 37 °C in 5% CO2 for cAMP accumulation assay the next day.
The reaction was terminated after 30 min by aspiration of the buffer and addition of 50 μl of ice-cold ethanol. Upon evaporation of ethanol, 75 μl of lysis buffer (5 mM HEPES, 0.1% (w/v) OVA, 0.3% (w/v) Tween20, pH 7.4) was added to the cells. cAMP detection was performed using a LANCE cAMP Detection Kit (PerkinElmer) for the construct validation and cysteine mutagenesis pharmacological assays and cAMP Gs HiRange kit (Cisbio) for the chimeric peptide pharmacological assays. The plates were read using an EnVision plate reader with excitation at 320 nm and emission at 615 nm[45].
as §2

[3] = tested on: PAC1R WT, C25A, C219A, C25A/C219A; assay: cAMP accumulation, cysteine mutagenesis (Fig. 6e, Supplementary Fig. 13d-f); assay type: cell-based; conditions: COS-7, mean of n = 3
Protocol: (§3) Maps are shown in transparent and model backbones are shown in ribbon format. The relevant cysteines are shown as stick models, with the putative disulfide bond present. […] The data for panels d and e are the mean ± SEM, n = 3 independent experiments. Differences in potency between WT and mutant receptors was assessed using a one-way ANOVA and Dunnett’s post-test. […] Interactions are listed by percentage of occupancy of frames, with the background colouring representing maximum occupancy % (red) and minimum occupancy % (white). Receptor residue background colouring is according to their residue numbering (TM transmembrane helix, ECL3 extracellular loop 3). Table is based on data presented in Supplementary Table 4. Source data for panels d and e are provided in the Source Data file.
as §1
(§4) COS-7 cells were used for the chimeric peptide and cysteine mutagenesis pharmacological assays due to their lack of endogenous expression of PAC1R and receptor activity-modifying proteins, reported to potentially heterodimerize with PAC1R and VPAC1R[42]. […] COS-7 cells were plated in 10 cm dishes at approximately 1 million cells/dish. Cells were transfected 24 h later, with 5 µg of either WT or mutant PAC1R or VPAC1R receptor DNA. […]
(§5) The reaction was terminated after 30 min by aspiration of the buffer and addition of 50 μl of ice-cold ethanol. […] The plates were read using an EnVision plate reader with excitation at 320 nm and emission at 615 nm[45].
(§6) The pharmacological data in figures and tables are reported as mean + standard error of the mean (SEM) with the number of biological replicates indicated in the figure and table legends where “n” represents the number of biological replicates performed. Concentration-response data were analyzed in GraphPad Prism version 9.4.0 using a three-parameter logistic curve to derive pEC50 values for the cyclic AMP accumulation. Competition binding data were analyzed in GraphPad Prism using the one site—Fit log IC50 model to derive pIC50 values. […]

M299^PAC1R/D301^PAC1R = conditions: cited from earlier work
From the text: Nonetheless, the secondary engagement of the peptide N-terminus with ECL2/ECL3 appeared to coordinate interactions that preceded the movement of the far N-terminal residues deeper into the binding pocket. Unique residues in ECL2 that differ between the V ...

VPAC1R WT, C37A, C208A = assay: cAMP accumulation, cysteine mutagenesis (Fig. 6d, Supplementary Fig. 13a-c); assay type: cell-based; conditions: for Difference in cAMP potency (pEC50) between WT and mutant VPAC1R: COS-7, mean of n = 3
Protocol: as §3, §1, §4, §5, §6

GLP-1R = conditions: cited from earlier work
From the text: In the equivalent position as R ...

VPAC2R = conditions: cited from earlier work

Ala4 PACAP27 (peptide)
fold reduction in pIC50 relative to PACAP27 (Nluc-PAC1R [1]): 30 fold

CC[C@H](C)[C@H](NC(=O)[C@H](CO)NC(=O)[C@H](CC(N)=O)NC(=O)[C@H](CC(C)C)NC(=O)[C@H](Cc1ccc(O)cc1)NC(=O)[C@H](CCCCN)NC(=O)[C@H](CCCCN)NC(=O)[C@@H](NC(=O)[C@H](C)NC(=O)[C@H](CCSC)NC(=O)[C@H](CCC(N)=O)NC(=O)[C@H](CCCCN)NC(=O)[C@H](CCCN=C(N)N)NC(=O)[C@H](CC(C)C)NC(=O)[C@H](CCCN=C(N)N)NC(=O)[C@@H](NC(=O)[C@H](Cc1ccc(O)cc1)NC(=O)[C@H](CC(N)=O)NC(=O)[C@H](CC(=O)O)NC(=O)[C@@H](NC(=O)[C@H](Cc1ccccc1)NC(=O)[C@@H](NC(=O)[C@H](C)NC(=O)[C@H](CC(=O)O)NC(=O)[C@H](CO)NC(=O)[C@@H](N)Cc1c[nH]cn1)C(C)C)[C@@H](C)O)[C@@H](C)O)C(C)C)C(=O)N[C@@H](CC(C)C)C(=O)N[C@@H](CC(N)=O)C(N)=O [VIP, vasoactive intestinal peptide, reference compound]
IC50 (Nluc-PAC1R [2]; replicate n=1): 4500 nM
IC50 (Nluc-PAC1R [2]; replicate n=2): 8090 nM
IC50 (Nluc-PAC1R [2]; replicate n=3): 12700 nM
IC50 (Nluc-PAC1R [2]; replicate n=4): 15700 nM
IC50 (Nluc-PAC1R [2]; replicate n=5): 7140 nM
EC50 (PAC1R; replicate n=1): 38.5 nM
EC50 (PAC1R; replicate n=2): 30.9 nM
EC50 (PAC1R; replicate n=3): 43.3 nM
EC50 (PAC1R; replicate n=4): 76.4 nM
EC50 (PAC1R; replicate n=5): 104 nM

PACAP38: PACAP38, a 38 amino acid peptide
Difference in cAMP potency (pEC50) between WT and mutant PAC1R ([3]; C25A C219A): -0.4376
Difference in cAMP potency (pEC50) between WT and mutant PAC1R ([3]; C25A): -0.9347
Difference in cAMP potency (pEC50) between WT and mutant PAC1R ([3]; C219A): -0.4471
Difference in cAMP potency (pEC50) between WT and mutant PAC1R ([3]; WT): 0
PACAP38-mediated cAMP production with alanine mutation of M299/D301 PAC1R (M299^PAC1R/D301^PAC1R): reduced PACAP38-mediated cAMP production
Difference in cAMP potency (pEC50) between WT and mutant VPAC1R (VPAC1R WT, C37A, C208A; C37A): -0.5843
Difference in cAMP potency (pEC50) between WT and mutant VPAC1R (VPAC1R WT, C37A, C208A; C208A): -0.568
reduction in cAMP potency at single cysteine mutants of either receptor, compared with VIP (VPAC1R WT, C37A, C208A; VPAC1R and PAC1R single mutants (Fig. 6d, e), only significant for PACAP27 at C37A VPAC1R or C25A PAC1R): much smaller reduction in potency
Difference in cAMP potency (pEC50) between WT and mutant VPAC1R (VPAC1R WT, C37A, C208A; WT): 0

GLP-1: glucagon-like peptide 1
GLP-1 affinity with R380 of GLP-1R switched to the VPAC1R residue (GLP-1R): reduced GLP-1 affinity
GLP-1 potency for cAMP production at GLP-1R D372A, E373A (GLP-1R): reduced GLP-1 potency for cAMP production

pituitary adenylate cyclase-activating polypeptide [PACAP]
VPAC2R affinity (VPAC2R): high affinity
